For two compounds, IC50 and Kd results are on record in patent publication US7732412B2, “Methods of treatment using novel LHRH antagonists having improved solubility properties” (Zentaris GmbH, priority 1999, dated 2010).

The target in test [1] is T1, human LHRH receptor (Homo sapiens, UniProt P30968).
T1 sequence (P30968 1-328): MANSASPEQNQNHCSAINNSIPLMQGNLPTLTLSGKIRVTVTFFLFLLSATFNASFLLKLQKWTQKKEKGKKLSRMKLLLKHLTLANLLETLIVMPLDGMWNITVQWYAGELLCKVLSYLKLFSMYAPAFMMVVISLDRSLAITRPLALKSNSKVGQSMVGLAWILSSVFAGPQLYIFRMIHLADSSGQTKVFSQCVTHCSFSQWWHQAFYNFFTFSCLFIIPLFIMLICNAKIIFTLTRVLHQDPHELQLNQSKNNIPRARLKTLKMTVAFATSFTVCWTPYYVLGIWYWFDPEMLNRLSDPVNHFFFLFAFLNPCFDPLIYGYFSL
The test is described as follows: functional assay for antagonistic activity, fos-Luc luciferase reporter gene, stimulation with 1 nM [D-Trp6] LHRH. The following applies: cells stimulated with 1 nM [D-Trp6] LHRH for 6 h; bracket = number of independent experiments. The arrangement: expressed in transfected cells. The class given is cell-based. As to the method: The assay for the functional characterization of antagonistic analogs of LH-RH was carried out, with some modifications, as described in Beckers et al., “Characterization of gonadotropin-releasing hormone analogs based on a sensitive cellular luciferase reporter gene assay” (1997) Analyt. Biochem. 251, 17-23. The assay uses a reporter gene made by fusing the c-fos immediate-early gene promoter to a DNA sequence encoding luciferase (Luc). A recombinant cell line that expresses the human LH-RH. receptor is stably transfected with the fos-Luc reporter gene. Transcription of the fos-Luc fusion gene and synthesis of the Luc protein is induced in the cells in a dose-dependent manner by LH-RH and other LH-RH agonists that bind and signal through the human LH-RH receptor. Peptide LH-RH antagonists such as the compounds of the invention bind to cellular LH-RH receptors and inhibit this stimulation. The antagonistic potency (IC50) of peptide LH-RH antagonists as determined by the assay generally correlates well with the binding affinity (KD) of the LH-RH antagonists for LH-RH receptor as determined from ligand binding experiments.
Cells containing the fos-Luc reporter gene that express the human LH-RH receptor were cultured for 24 h in microtitre plates using DMEM with additives and 1% (v:v) FCS (10,000 cells per well). The cells were then stimulated with 1 nM [D-Trp^6] LHRH for 6 h. Peptide LH-RH antagonist compounds according to the invention were added before the stimulation, and the cells were lysed at the end for quantification of the cellular Luc activity. The calculation of the IC50 values from dose-effect curves was carried out by non-linear regression analysis using the Hill model (Programme EDX 2.0 from C. Grunwald, Arzneimittelwerk Dresden).
The quantification of the Luc activity was carried out in duplicate essentially as described (Promega Technical Bulletins #101/161) using the respective luciferase assay system (Promega E4030). Owing to addition of coenzyme A (CoA), an oxidation of luciferyl-CoA takes place with advantageous kinetics. After the removal of the culture medium from the microtitre plate, the cells were lysed by addition of 100 μl of lysis buffer (25 mM tris-phosphate pH 7.8, 2 mM dithiothreitol, 2 mM 1,2-diaminocyclohexane-N,N,N′,N′-tetraacetic acid (CDTA), 10% (v:v) glycerol, 1% (v:v) Triton X-100). After incubation at room temperature for 15 min, 10 μl of cell lysate were transferred into a white microtitre plate suitable for luminometric detection (Dynatech). The enzymatic reaction was initiated by addition of 50 μl of assay buffer (20 mM tricine pH 7.8, 1.07 mM (MgCO3)4Mg(OH)2, 2.67 mM MgSO4, 0.1 mM ethylene-diaminetetraacetic acid (EDTA), 33.3 mM dithiothreitol, 270 μM coenzyme A, 470 μM glow-worm (Photinus pyralis) luciferin, 530 μM rATPNa2). After one minute, the luminescence was determined for a total time of one second with a signal half-life of five minutes using the EG&G Berthold MicroLumat LB 96 P.

Test [2] has as its target T1, human LHRH receptor. The test is described as follows: receptor binding assay, displacement of [125I]-cetrorelix on intact cells. The following applies: LTK cells expressing human LHRH receptor, 1 h at 37° C.; bracket = number of independent experiments; read-out: KD (binding affinity). More on the design: expressed in transfected cells; host or cells: LTK cells (stably transfected), intact cells. An excerpt:
The compounds according to formula I of the invention were investigated for their receptor binding. The assay method closely followed the process described in Beckers et al., “Selection and characterization of mammalian cell lines with stable overexpression of human pituitary receptors for gonadoliberin (GnRH)” (1995) Eur. J. Biochem., 231, 535-543. Cetrorelix obtained according to the synthesis disclosed above was iodinated with [^125I] (Amersham; specific activity 80.5 Bq/fmol) using the IodoGen reagent (Pierce). The reaction mixture was purified by reverse-phase high-performance liquid chromatography with exchanged phases, monoiodinated cetrorelix being obtained without unlabelled peptide. In each case, about 80% of the [^125I]-cetrorelix was capable of specific receptor association.
The receptor binding assay was carried out under physiological conditions as described (Beckers et al., 1995) using intact cells. Subconfluent cultures of stably transfected LTK cells, which express the human LHRH receptor, were separated off by incubation in NaCl/Pi (137 mM NaCl, 2.7 mM KCl, 8.1 mM Na2HPO4, […])/1 mM EDTA and collected by centrifugation. The cell pellet was resuspended in binding buffer (DMEM without H2CO3, with 4.5 g/l of glucose, 10 mM Hepes pH 7.5, 0.5% (mass/volume) BSA, 1 g/l bacitracin, 0.1 g/l SBTI, 0.1% (mass/volume) NaN3). For displacement assays, 0.25×10^6 cells/100 μl were incubated with approximately 225 pM of the [^125I]-cetrorelix (specific activity 5-10×10^5 dpm/pmol) and various concentrations of unlabelled compound according to the invention as competitor. The cell suspension in 100 μl of binding medium was layered in 400 μl assay tubes over 200 μl of 84% by volume silicone oil (Merck Type 550)/16% by volume paraffin oil. […] Cell pellet and supernatants were then analysed by counting the y radiation. The amount of non-specifically bound material was determined at a final concentration of 1 μM with inclusion of unlabelled cetrorelix and was typically ≦10% of the total bound material. […]
In general terms: Displacement assays read how much labelled ligand stays bound in the presence of the test substance.

Each structure is given as a SMILES string. Numbered stars: 1 amine (or outer) side, 2 acyl side, 3 side chain; on linkers, the order of the positions; unused ones are H or OH. Square brackets hold non-standard residues; d marks the D form. Side chains are listed from the residue outwards. Peptide text beside a SMILES is read from it. * marks the point of attachment. NH(4-amidinophenyl) = N=C(N)c1ccc(N*)cc1; dPhe(4-Cl) = N[C@H](Cc1ccc(Cl)cc1)C(=O)O; d2Nal = N[C@H](Cc1ccc2ccccc2c1)C(=O)O; NMeY = CN[C@@H](Cc1ccc(O)cc1)C(=O)O; dCit = NC(=O)NCCC[C@@H](N)C(=O)O; d3Pal = N[C@H](Cc1cccnc1)C(=O)O; Suc = O=C(CCC(=O)[*:2])[*:1]

Usually IC50 stands for the concentration needed to halve the response being measured. High values mean weaker potency in that assay, low ones greater potency in that assay. What is called Kd is the equilibrium constant for the complex coming apart. Regarding `CC(=O)N[C@H](Cc1ccc2ccccc2c1)C(=O)N[C@H](Cc1ccc(Cl)cc1)C(=O)N[C@H](Cc1cccnc1)C(=O)N[C@@H](CO)C(=O)N(C)[C@@H](Cc1ccc(O)cc1)C(=O)N[C@H](CCCCNC(=O)CCC(=O)Nc1ccc(C(=N)N)cc1)C(=O)N[C@@H](CC(C)C)C(=O)N[C@@H](CCCNC(=N)N)C(=O)N1CCC[C@H]1C(=O)N[C@H](C)C(N)=O` [Example 3, Ac-D-Nal(2)^1-D-Cpa^2-D-Pal(3)^3-ser^4-N-Me-Tyr^5-D-Lys(B)^6-Leu^7-Arg^8-Pro^9-D-Ala^10-NH2] (Ac-[d2Nal][dPhe(4-Cl)][d3Pal]S[NMeY][dK]([Suc-NH(4-amidinophenyl)])LRP[dA]-NH2), the IC50 at human LHRH receptor [1] came to 0.492 nM. In addition, on human LHRH receptor [2], the Kd worked out at 0.154 nM.
The compound `CC(=O)N[C@H](Cc1ccc2ccccc2c1)C(=O)N[C@H](Cc1ccc(Cl)cc1)C(=O)N[C@H](Cc1cccnc1)C(=O)N[C@@H](CO)C(=O)N[C@@H](Cc1ccc(O)cc1)C(=O)N[C@H](CCCNC(N)=O)C(=O)N[C@@H](CC(C)C)C(=O)N[C@@H](CCCNC(=N)N)C(=O)N1CCC[C@H]1C(=O)N[C@H](C)C(N)=O` [cetrorelix, Ac-D-Nal(2)^1-D-Cpa^2-D-Pal(3)^3-Ser^4-Tyr^5-D-Cit^6-Leu^7-Arg^8-Pro^9-D-Ala^10-NH2, reference compound] (Ac-[d2Nal][dPhe(4-Cl)][d3Pal]SY[dCit]LRP[dA]-NH2) showed a half-maximal inhibitory concentration (IC50) against human LHRH receptor [1] of 0.198 nM. The Kd at human LHRH receptor [2] amounted to 0.17 nM.
